Measured values taken from patent publication US8759368B2, “Benzoic acid, benzoic acid derivatives and heteroaryl carboxylic acid conjugates of hydrocodone, prodrugs, methods of making and use thereof” (KemPharma, Inc., priority 2009, dated 2014).

Assays:
[1] = Water solubility / hydrophobicity of conjugates (feasibility of intranasal or intravenous dosing); details: for hydrophobic character (in words): do not dissolve in a practical amount of water for intravenous dosing at oral equivalent doses; for water solubility (in words): mixed with water, basis for intranasal or intravenous dosing in rats
[2] = Chemical stability: hydrolysis in 5% NaHCO3 for one hour; type: physicochemical; details: 5% NaHCO3, one hour; for %-release in 5% NaHCO3, ambient: ambient temperature (~20° C.); for %-release in 5% NaHCO3, 100° C.: oil bath at 100° C.
[3] = Chemical stability: hydrolysis to hydrocodone in 1 N HCl for 1 hour; details: for %-release in 1N HCl, ambient: ambient temperature (~20° C.); for %-release in 1N HCl, 100° C.: oil bath at 100° C.
[4] = Intranasal PK in rats, plasma hydrocodone and hydromorphone by LC-MS/MS; details: equivalent to 2 mg/kg hydrocodone freebase
[5] = Oral PK in dogs, plasma intact Bz-HC, hydrocodone and hydromorphone by LC-MS/MS; details: equivalent to 2 mg/kg freebase hydrocodone, FIG. 17
[6] = Oral PK in rats, plasma hydrocodone, hydromorphone and intact conjugate by LC-MS/MS
[7] = Chemical stability: hydrolysis of conjugate in water for one hour; type: physicochemical; details: for water, ambient (amount of conjugate hydrolyzed): ambient temperature (about 20° C.); for water, 100° C. (amount of conjugate hydrolyzed): oil bath at 100° C.
Method: Exemplary conjugates of hydrocodone of the present technology and control test conjugates not of the present technology were tested for chemical stability under conditions similar to what a potential drug abuser may use to “extract” the active portion of the molecule, for example dissolved in water, hydrochloric acid or sodium bicarbonate either at ambient temperature or 100° C.

[8] = equivalent to 2 mg/kg freebase hydrocodone, FIG. 14
[9] = equivalent to 2 mg/kg hydrocodone freebase, FIG. 11
[10] = equivalent to 2 mg/kg hydrocodone freebase, FIG. 12

With `COc1ccc(C(=O)OC2=CC[C@H]3[C@H]4Cc5ccc(OC)c6c5[C@@]3(CCN4C)C2O6)cc1O` (stereo partly shown) [3-OH-4-MeO-Bz-HC] the “hydrophobic character (in words)” value [1] was “hydrophobic”, the “water solubility (in words)” value [1] was “poorly water soluble” and the “%-release in 5% NaHCO3, ambient” value [2] was 0%. For the same molecule, the “%-release in 5% NaHCO3, 100° C.” value [2] was 36%, the “%-release in 1N HCl, ambient” value [3] was 0% and the “%-release in 1N HCl, 100° C.” value [3] was 35%.

With `COc1ccc2c3c1OC1C(OC(=O)CCCCC(=O)O)=CC[C@H]4[C@@H](C2)N(C)CC[C@]314` (stereo partly shown) [Adipate-HC, reference compound] the “AUC for hydromorphone released from Adipate-HC, higher than for Bz-HC (sentence on hydrocodone plasma concentrations)” value ([4]; FIG. 7) was “approximately 280%”, the “Cmax for hydromorphone released from Adipate-HC, higher than for Bz-HC (sentence on hydrocodone plasma concentrations)” value ([4]; FIG. 7) was roughly 60% and the “AUC for hydromorphone released from Adipate-HC, higher than for Bz-HC” value ([4]; FIG. 8) was “approximately 750%”. The “Cmax for hydromorphone released from Adipate-HC, higher than for Bz-HC” value ([4]; FIG. 8) was roughly 660%, the “water solubility (in words)” value [1] was “water soluble” and the “%-release in 5% NaHCO3, ambient” value [2] was 3%. For the same molecule, the “%-release in 5% NaHCO3, 100° C.” value [2] was 100%, the “%-release in 1N HCl, ambient” value [3] was 13% and the “%-release in 1N HCl, 100° C.” value [3] was 100%.

For `COc1ccc2c3c1OC1C(OC(=O)c4ccccc4)=CCC4C(C2)N(C)CCC314` (stereo not shown) [Bz-HC, benzoate-hydrocodone], the “hydrocodone plasma concentrations compared with Adipate-HC” value ([4]; FIG. 7) was “significantly lower”, the “plasma concentration of hydromorphone compared with Adipate-HC” value ([4]; FIG. 8) was “very low” and the “hydrophobic character (in words)” value [1] was “hydrophobic”. The “water solubility (in words)” value [1] was “poor water solubility”, the “AUC value for intact Bz-HC as % of the AUC value for hydrocodone” value [5] was “approximately 10%” and the “Cmax values of hydrocodone and hydromorphone versus dose” value ([6]; 0.25 to 4.00 mg/kg, particularly for hydromorphone) was “more variable”. For the same molecule, the “maximum plasma concentrations of hydromorphone versus dose” value ([6]; doses above 2.00 mg/kg of Bz-HC) was “did not significantly change”, the “exposures (AUC) to hydrocodone and hydromorphone versus dose” value ([6]; doses of Bz-HC between 0.25 and 4.00 mg/kg, FIGS. 19 and 20) was “fairly linear” and the “oral PK curve for released hydrocodone compared with YYFFI-HC” value ([6]; equivalent to 2 mg/kg freebase hydrocodone, FIG. 5) was “somewhat similar”. For the same molecule, the “AUC for intact Bz-HC as % of the AUC value for hydrocodone” value [6, 8] was “approximately 10%” and the “AUC for intact Bz-HC as % of the AUC value for hydromorphone” value [6, 8] was roughly 3%.

With `COc1ccc2c3c1OC1C(OC(=O)c4ccccc4N)=CCC4C(C2)N(C)CCC314.Cl.Cl` (stereo not shown) [Compound 2-ABz-HC, 2-Aminobenzoic Acid Ester of Hydrocodone Dihydrochloride Salt] the “hydrocodone AUC, lower than for Hydrocodone.BT” value [6, 9] was “approximately 35%”, the “hydrocodone Cmax, lower than for Hydrocodone.BT” value [6, 9] was roughly 60% and the “hydromorphone AUC, lower than for Hydrocodone.BT” value [6, 10] was “approximately 25%”. The “hydromorphone Cmax, lower than for Hydrocodone.BT” value [6, 10] was roughly 50%, the “%-release in 1N HCl, ambient” value [3] was 0% and the “%-release in 1N HCl, 100° C.” value [3] was 16%. The “water, ambient (amount of conjugate hydrolyzed)” value (“water, ambient” below) [7] was 0% and the “water, 100° C. (amount of conjugate hydrolyzed)” value [7] was 0%.

For `COc1ccc2c3c1O[C@H]1C(OC(=O)c4ccccc4O)=CC[C@H]4[C@@H](C2)N(C)CC[C@]314.Cl` [Compound 2-OH-Bz-HC, Salicylic Acid Ester of Hydrocodone Hydrochloride Salt], the “hydrophobic character (in words)” value [1] was “hydrophobic”.

With `COc1ccc2c3c1OC1C(OC(=O)c4cccc(O)c4)=CCC4C(C2)N(C)CCC314` (stereo not shown) [Compound 3-OH-Bz-HC] the “hydrophobic character (in words)” value [1] was “hydrophobic” and the “water solubility (in words)” value [1] was “poorly water soluble”.

For `COc1ccc(C(=O)OC2=CC[C@H]3[C@H]4Cc5ccc(OC)c6c5[C@@]3(CCN4C)C2O6)cc1` (stereo partly shown) [Compound 4-MeO-Bz-HC], the “hydrophobic character (in words)” value [1] was “hydrophobic”, the “water, ambient” value [7] was 0% and the “water, 100° C. (amount of conjugate hydrolyzed)” value [7] was 0%.

For `COc1ccc2c3c1O[C@H]1C(OC(=O)c4ccc(O)cc4)=CC[C@H]4[C@@H](C2)N(C)CC[C@]314` [Compound 4-OH-Bz-HC], the “hydrophobic character (in words)” value [1] was “hydrophobic”, the “%-release in 5% NaHCO3, ambient” value [2] was 1% and the “%-release in 5% NaHCO3, 100° C.” value [2] was 23%. For the same molecule, the “%-release in 1N HCl, ambient” value [3] was 0%, the “%-release in 1N HCl, 100° C.” value [3] was 30% and the “water, ambient” value [7] was 0%. The “water, 100° C. (amount of conjugate hydrolyzed)” value [7] was 0%.

With `COc1ccc2c3c1OC1C(OC(=O)COCC(=O)O)=CC[C@H]4[C@@H](C2)N(C)CC[C@]314` (stereo partly shown) [Diglycolate-HC, reference compound] the “water solubility (in words)” value [1] was “water soluble”.

For `COc1ccc2c3c1OC1C(OC(=O)c4cccnc4)=CCC4C(C2)N(C)CCC314` (stereo not shown) [Nicotinate-HC, nicotinate-hydrocodone], the “hydrophobic character (in words)” value [1] was “hydrophobic”, the “hydrocodone and hydromorphone plasma concentrations compared with unconjugated Hydrocodone.BT” value ([6]; equivalent to 2 mg/kg hydrocodone freebase, FIGS. 9 and 10) was “below the respective concentrations” and the “AUC values of hydrocodone and hydromorphone compared with Hydrocodone.BT” value ([6]; same dose based on hydrocodone freebase) was “within the range of bioequivalence”.

For `COc1ccc2c3c1OC1C(OC(=O)c4ccc5c(c4)OCO5)=CC[C@H]4[C@@H](C2)N(C)CC[C@]314` (stereo partly shown) [Piperonylate-HC], the “hydrophobic character (in words)” value [1] was “hydrophobic” and the “water solubility (in words)” value [1] was “poorly water soluble”.

For “Tyr-Tyr-Phe-Phe-Ile-Hydrocodone [YYFFI-HC, reference compound]”, the “%-release in 5% NaHCO3, ambient” value [2] was 0% and the “%-release in 5% NaHCO3, 100° C.” value [2] was 70%.
